Two compounds from US20140066385A1, “METHOD FOR TREATING CANCER BY COMBINED USE OF DRUGS” (Astellas Pharma Inc., priority 2011, published 2014) can be followed below.

The assay concerns human gastric cancer (AZ-521). In words: Example 5: FK330 with paclitaxel in AZ-521 tumor-bearing mice. It is filed as in vivo, nude mice. The conditions noted are these: for tumor volume on the last day of experiment: AZ-521, Day 46, mean±SEM. The procedure: Preparation of the test substances was carried out in the same manner as in Example 2.
Human gastric cancer-derived NCI-N87 (CRL-5822) was obtained from American Type Culture Collection (VA, USA), MKN-28 (JCRB0253) was obtained from Health Science Research Resources Bank (HSRRB), and AZ-521 (RCB2087) was obtained from Riken BRC. NCI-N87 and MKN-28 cells were cultured under the conditions of 37° C. and 5% CO2 by using RPMI1640 medium containing 10% heat-inactivated fetal bovine serum (FBS), and AZ-521 cells were cultured under the conditions of 37° C. and 5% CO2 by using DMEM medium containing 10% heat-inactivated FBS. The cells were harvested with trypsin and were suspended in PBS at 6×10^7 cells/mL, and the suspension was mixed with an equal amount of Matrigel (trade name) Basement Membrane Matrix (manufactured by Becton Dickinson Co., Bedford, Mass., USA).
Five-week old male nude mice (CAnN Cg-Foxn1nu/CrlCrlj(nu/nu)) were purchased from Charles River Laboratories Japan, Inc. (Japan, Kanagawa). The animals were raised under specific pathogen-free (SPF) conditions throughout the test period by feeding standard feedstuff and drinking water. The cultured cells were subcutaneously inoculated into the dorsal region of the nude mice at a concentration of 3×10^6 cells/0.1 mL/mouse. […]
Every 2 to 4 days, the body weight and the tumor diameters, determined by using a digital caliper, were measured. The tumor volume was calculated from the calculation formula for ellipsoid volume of (major axis×[minor axis]^2×0.52).
The results are expressed as the mean value (Mean)±standard error (SEM). Using the actual measured values of the tumor volume at each measurement time point, an unpaired statistical test (Student's t-test) of the difference between two groups was carried out between a single administration group and a combined use group. […]

Consider `O=C(/C=C/c1ccc(Cl)cc1)N[C@@H](Cc1ccccn1)C(=O)NCC(=O)N1CCC(Oc2cc(C(F)(F)F)ncn2)CC1` [FK330, N^2-[(2E)-3-(4-chlorophenyl)-2-propenoyl]-N-[2-oxo-2-(4-{[6-(trifluoromethyl)pyrimidin-4-yl]oxy}piperidin-1-yl)ethyl]-3-pyridin-2-yl-L-alaninamide], for which the “tumor volume on the last day of experiment” value (combined use group paclitaxel 10 mg/kg/day + FK330 100 mg/kg bid) is reported as 795.0±223.3 mm^3. For the same compound, the “tumor volume decrease compared with the paclitaxel-only group” value (AZ-521, last day, FK330 100 mg/kg bid + paclitaxel, P<0.01) is listed as 75.8%.
Take `CC(=O)O[C@H]1C(=O)[C@@]2(C)[C@H]([C@H](OC(=O)c3ccccc3)[C@]3(O)C[C@H](OC(=O)[C@H](O)[C@@H](NC(=O)c4ccccc4)c4ccccc4)C(C)=C1C3(C)C)[C@]1(OC(C)=O)CO[C@@H]1C[C@@H]2O` [paclitaxel, reference compound]: the “tumor volume on the last day of experiment” value (paclitaxel-only group 10 mg/kg/day i.v., two cycles) is 3285.4±359.4 mm^3.
